According to patent publication US6670493B2, “Methods and compositions for treating diseases due to androgen deficiency with glucocorticoid receptor antagonist compounds and new compounds” (Jenapharm GmbH & Co. KG, priority 2001, dated 2003):

Assays:
[1] = system: male rats of the CD breeding line; test: Serum testosterone level of rats after chronic dexamethasone treatment with or without RU 38486; type: in vivo, rat; settings: for Serum Testosterone: day 9, average ± standard error
Experimental: (§1) Sexually mature, 3-month old male rats of the CD breeding line (Charles River GmbH, Sulzfeld, Germany) were kept in groups of 4 animals under controlled illumination (light:darkness 12:12 hours) with free access to food and drinking water. After a 1-week adaptation, the animals were tested by exposure to ovarectomized, estrogen-treated females for the presence of male sexual behavior (G. Dörner, Hormones and brain differentiation, Elsevier, Amsterdam, 1976, pp. 126-132). […] The animals of the reference group received intraperitoneal injections of dexamethasone (Fortecortin: Merck, Darmstadt, Germany) daily according to the following schedule: 0.5 mg/kg on days 1 to 3, 1 mg/kg on days 4 to 6 and 1.5 mg/kg on days 7 to 9. The control animals were injected with placebo (0.9% sterile NaCl solution. In addition to the dexamethasone treatment, the experimental group received subcutaneous injections of the glucocorticoid receptor antagonist RU 38486 (Sigma, Deisenhofen, Germany) in sesame oil solution in a dose of 10 mg/kg daily according to the schedule given above.
(§2) Male sexual behavior was evaluated on the ninth day by the method given above. After the behavior test, blood samples were taken from the retroorbital plexus for determining the serum testosterone level. The testosterone was determined with a commercial test formulation (IBL, Hamburg, Germany).

[2] = system: male rats of the CD breeding line; test: Male sexual behavior of rats after chronic dexamethasone treatment with or without RU 38486; type: in vivo, rat; settings: for Male Sexual Behavior (Copulations in 5 minutes): day 9, average ± standard error
Experimental: as §1, §2

primary rat Leydig cells [3] = test: hCG-stimulated testosterone production in primary rat Leydig cells treated with dexamethasone with or without glucocorticoid receptor antagonist (Elisa); type: cell-based; settings: for Testosterone Production, Average value ± SD (%): hCG alone = 100, basal = 0
Experimental: (§3) Testicular cells were prepared from the testicles of sexually mature, 12-week old, male Wistar rats by means of a collagenase treatment. Leydig cells were obtained from this preparation by a continuous Percoll gradient centrifugation.
(§4) Freshly prepared Leydig cells were sown in microtiter plates in 100 μL of DMEM/F12 with phenol red (20,000) cells/well) with addition of 0.1% BSA, penicillin (100 U/ml) and streptomycin (100 μg/ml). After one hour, the medium was changed with addition of substance. For 18 hours, the Leydig cells were incubated with dexamethasone alone or together with glucocorticoid receptor antagonists (250 μL of DMEM/well with addition of penicillin (100 U/ml) and streptomycin (100 μg/ml)). […] Ethanol was used as solvent for dexamethasone and the glucocorticoid receptor antagonists; the final concentration of the ethanol was not more than 0.2%.
Aliquots of the supernatant were frozen at −70° C. Testosterone was measured with a commercial Elisa (IBL, Hamburg). The standard curve of testosterone Elisa was then adapted to the cell culture conditions.

primary rat Leydig cells [4] = test: Cell damage: activity of mitochondrial succinate dehydrogenase (WST-1 test) in primary rat Leydig cell cultures; type: cell-based
Experimental: as §3, §4
Parallel to the testosterone measurement, cell damage was determined after the 26 hours by measuring the activity of the mitochondrial succinate dehydrogenase (WST-1 test, Böhringer, Mannheim).

[5] = dexamethasone i.p. 0.5-1.5 mg/kg daily for 9 days + RU 38486 s.c. 10 mg/kg daily
[6] = simultaneous administration of dexamethasone and RU 38486
[7] = hCG 0.5 ng/ml + 100 nM DEX + glucocorticoid receptor antagonist 1 μm
[8] = hCG + 100 nM DEX + glucocorticoid receptor antagonist 1 μm
[9] = dexamethasone alone i.p. 0.5-1.5 mg/kg daily for 9 days
[10] = hCG 0.5 ng/ml + 100 nM DEX alone

Compound | Testosterone Production, Average value ± SD (primary rat Leydig cells [3]; [7]) [ng/mL] | Testosterone Production, Average value ± SD (%) (primary rat Leydig cells [3]; [7]) | Succinate Dehydrogenase Activity, Average value ± SD (primary rat Leydig cells [4]; [8]) [Absorptions Units] | further results
CC#C[C@]1(O)CC[C@H]2[C@@H]3CCC4=CC(=O)CCC4=C3[C@@H](c3ccc(N(C)C)cc3)C[C@@]21C [RU38486, 11β-dimethylaminophenyl-17β-hydroxy-17α-propinyl-estra-4,9-diene-3-one] | 4.48 ± 1.14 | 105.23 ± 27.83 | 0.311 ± 0.031 | Serum Testosterone [1, 5]: 20.2 ± 4.9 ng/mL; Effect on serum testosterone concentration (in words) [1, 6]: prevented the reduction in the serum testosterone concentration; Male Sexual Behavior (Copulations in 5 minutes) [2, 5]: 9.2 ± 1.0 Copulations in 5 minutes; Effect on male sexual behavior (in words) [2, 6]: retention of male sexual behavior at the level of the placebo group
C[C@@H]1C[C@H]2[C@@H]3CCC4=CC(=O)C=C[C@]4(C)[C@@]3(F)[C@@H](O)C[C@]2(C)[C@@]1(O)C(=O)CO [DEX, dexamethasone] |  |  |  | Serum Testosterone [1, 9]: 2.3 ± 0.2 ng/mL; Male Sexual Behavior (Copulations in 5 minutes) [2, 9]: 4.0 ± 0.9 Copulations in 5 minutes; Testosterone Production, Average value ± SD (primary rat Leydig cells [3]; [10]): 2.00 ± 0.58P ng/ml; Testosterone Production, Average value ± SD (%) (primary rat Leydig cells [3]; [10]): 44.63 ± 14.08P %; Effect on mitochondrial succinate dehydrogenase activity (in words) (primary rat Leydig cells [4]; dexamethasone 10^-7 M): significant inhibition of the mitochondrial activity; Succinate Dehydrogenase Activity, Average value ± SD (primary rat Leydig cells [4]; [10]): 0.192 ± 0.036 Absorptions Units
CC12CC(c3ccc(C=NO)cc3)C3=C4CCC(=O)C=C4CCC3C1CCC2(O)C#Cc1ccc(S(C)(=O)=O)cc1 (stereo not drawn) [GRA3, 4-[17β-hydroxy-17α,21-(4′-methylsulfonylphenyl)-19-nor-3-oxopregna-4,9-diene-20-yn-11β-yl]benzaldehyde-1(E)-oxime] | 4.52 ± 1.01 | 106.30 ± 24.75 | 0.313 ± 0.018 | 
COCC1(OC)CCC2C3CCC4=CC(=O)CCC4=C3C(c3ccc(C(=NO)C(F)(F)F)cc3)CC21C (stereo not drawn) [GRA1, 4-(17β-methoxy-17α-(methoxymethyl)-estra-4,9-diene-3-one-11β-yl]2,2,2-trifluoroacetophenone-1(Z)-oxime] | 3.57 ± 0.83 | 83.00 ± 20.40 | 0.289 ± 0.040 | 
C[C@]12C[C@H](c3ccc4c(c3)OCO4)C3=C4CCC(=O)C=C4CC[C@H]3[C@@H]1CC[C@@]2(O)C#Cc1ccc(S(C)(=O)=O)cc1 [GRA2] | 3.48 ± 0.64 | 80.97 ± 15.47 | 0.363 ± 0.032 | 
